Results from patent US20240279218A1 (Hoffmann-La Roche Inc., priority 2016, published 2024).

Columns and labels:
h-GABA-A α5β3γ2 [1] = target: T1, h-GABA-A α5β3γ2 (Homo sapiens (Human), UniProt P18507+P31644); experiment: Two-electrode voltage clamp electrophysiology in Xenopus oocytes expressing GABAA receptors, modulation of GABA EC20 current; assay type: cell-based; details: Xenopus oocytes; for Efficacy (GABA) %: % modulation of GABA EC20 = 100*(Fold increase−1); for Fold increase h-GABA-A α5β3γ2 oocyte: GABA EC20, test compound at approx. 30 fold its Ki
Method: Xenopus laevis oocytes at maturation stages V-VI were used for the expression of cloned mRNA encoding GABAA receptor subunits. Oocytes ready for RNA micro-injection were bought from Ecocyte, Castrop-Rauxel, Germany and stored in modified Barth's medium (composition in mM: NaCl 88, KCl 1, NaHCO32.4, HEPES 10, MgSO4 0.82, CaNO3 0.33, CaCl2) 0.33, pH=7.5) at 20° C. until the experiment.
Oocytes were plated in 96-well plates to be used in an automated instrument (Robo-ocyte, MultiChannelSystems, Reutlingen, Germany) for microinjection and electrophysiological recordings. Approximately 50 nl of an aqueous solution containing the RNA transcripts for the subunits of the desired GABAA receptor was injected into each oocyte. RNA concentrations ranged between 0.3 and 16 ng/μl/subunit and were adjusted in pilot experiments to obtain GABA responses of a suitable size and a maximal effect of the reference modulator, Beta-CCM (β-CCM), a betacarboline negative allosteric modulator (NAM) at the GABAA receptor benzodiazepine (BZD) binding site or Midazolam, a benzodiazepine positive allosteric modulator (PAM) at the GABAA receptor benzodiazepine (BZD) binding site. The concentration of the γ2 subunit encoding RNA usually was 5-to 10-fold higher than the RNAs encoding the other subunits. Oocytes were kept in modified Barth's medium (composition in mM: NaCl 88, KCl 1, NaHCO3 4, HEPES 10, MgSO4 0.82, CaNO3 0.33, CaCl2 0.33, pH=7.5) at 20° C. until the experiment.
Electrophysiological experiments were performed on days 3 to 5 after the micro-injection of mRNA. During the experiment the oocytes were constantly superfused by a solution containing (in mM) NaCl 90, KCl 1, HEPES 5, MgCl2 1, CaCl2 1 (pH 7.4). Oocytes were impaled by two glass microelectrodes (resistance: 0.4 MΩ) which were filled with a solution containing KCl 1M+K-acetate 1.5 M and voltage-clamped to −80 mV. The recordings were performed at room temperature using the Roboocyte two-electrode voltage clamp system (Multichannelsystem). After an initial equilibration period of 1.5 min GABA was added for 1.5 min at a concentration evoking approximately 20% of a maximal current response (EC20). After another rest interval of 2.5 min GABA was again added evoking a response of similar amplitude and shape. […] Current traces were recorded at a digitization rate of 10 Hz during and shortly before and after the GABA application.
Each compound and concentration was tested on at least 3 oocytes.
For the analysis, the digitized current traces of the first and second GABA response were superimposed and, if necessary, rescaled to equal maximal amplitudes. The ratio between the two responses during the time interval of test compound application was calculated point by point. The extremum of the resulting “ratio trace” was taken as the efficacy (“Fold increase”) of the compound expressed as “% modulation of GABA EC20” (100*(Fold increase−1)).

h-GABA-A α5β3γ2 [2] = target: T1, h-GABA-A α5β3γ2; experiment: [3H]flumazenil competition binding assay, membranes of HEK293 cells expressing human GABAA receptors; details: displacement of [3H]flumazenil 0.5 nM, HEK293 cells expressing human receptors, mean of two determinations; read-out: Ki h-GABA-A α5β3γ2
Method: The affinity of compounds at GABAA receptor subtypes was measured by competition for [3H]flumazenil (85 Ci/mmol; Roche) binding to HEK293 cells expressing rat (stably transfected) or human (transiently transfected) receptors of composition α1β3γ2, α2β3γ2, α3β3γ2 and α5β3γ2.
Cell pellets were suspended in Krebs-tris buffer (4.8 mM KCl, 1.2 mM CaCl2, 1.2 mM MgCl2, 120 mM NaCl, 15 mM Tris; pH 7.5; binding assay buffer), homogenized by polytron for ca. 20 sec on ice and centrifuged for 60 min at 4° C. (50000 g; Sorvall, rotor: SM24=20000 rpm). The cell pellets were resuspended in Krebs-tris buffer and homogenized by polytron for ca. 15 sec on ice. Protein was measured (Bradford method, Bio-Rad) and aliquots of 1 mL were prepared and stored at −80° C.
Assays were incubated to equilibrium for 1 hour at 4° C. and harvested onto GF/C uni-filters (Packard) by filtration using a Packard harvester and washing with ice-cold wash buffer (50 mM Tris; pH 7.5). After drying, filter-retained radioactivity was detected by liquid scintillation counting. Ki values were calculated using Excel-Fit (Microsoft) and are the means of two determinations.

Compound	Efficacy (GABA) % (h-GABA-A α5β3γ2 [1]) [%]	Fold increase h-GABA-A α5β3γ2 oocyte (h-GABA-A α5β3γ2 [1])	Ki (h-GABA-A α5β3γ2 [2]) [nM]
Cc1ccc(-c2noc(C)c2COc2ccc(C(=O)NCC3CC3)cn2)cn1 [Example 2, N-(cyclopropylmethyl)-6-((5-methyl-3-(6-methyl-3-pyridyl)isoxazol-4-yl)methoxy)pyridine-3-carboxamide]	63	1.63	8.3
CCNC(=O)c1ccc(OCc2c(-c3ccc(C)nc3)noc2C)nc1 [Example 3, N-ethyl-6-((5-methyl-3-(6-methyl-3-pyridyl)isoxazol-4-yl)methoxy)pyridine-3-carboxamide]	41	1.41	1.4
CCC[C@@H](CO)NC(=O)c1ccc(OCc2c(-c3ccc(C)nc3)noc2C)nc1 [Example 4, (S)—N-(1-hydroxypentan-2-yl)-6-((5-methyl-3-(6-methylpyridin-3-yl)isoxazol-4-yl)methoxy)nicotinamide]	150	2.5	7.3
CCC[C@@H](CO)NC(=O)c1ccc(OCc2c(-c3ccc(C)nc3)noc2C2CC2)nc1 [Example 5, 6-((5-cyclopropyl-3-(6-methyl-3-pyridyl)isoxazol-4-yl)methoxy)-N-((1S)-1-(hydroxymethyl)butyl)pyridine-3-carboxamide]	245	3.45	58.6
Cc1ccc(-c2noc(C3CC3)c2COc2ccc(C(=O)NC3CCOCC3)cn2)cn1 [Example 6, 6-((5-cyclopropyl-3-(6-methyl-3-pyridyl)isoxazol-4-yl)methoxy)-N-tetrahydropyran-4-yl-pyridine-3-carboxamide]	167	2.67	54.1
CCC[C@@H](CO)NC(=O)c1ccc(OCc2c(-c3ccc(C)nc3)noc2C)nn1 [Example 7, (S)—N-(1-hydroxypentan-2-yl)-6-((5-methyl-3-(6-methylpyridin-3-yl)isoxazol-4-yl)methoxy)pyridazine-3-carboxamide]	102	2.02	25.6
Cc1ccc(-c2noc(C)c2COc2ccc(C(=O)NC3CCOCC3)nn2)cn1 [Example 8, 6-((5-methyl-3-(6-methylpyridin-3-yl)isoxazol-4-yl)methoxy)-N-(tetrahydropyran-4-yl)pyridazine-3-carboxamide]	97	1.97	8.7
Cc1ccc(-c2noc(C)c2COc2cc3c(cn2)C(=O)N(CC(C)C)C3)cn1 [Example 9, 2-isobutyl-6-((5-methyl-3-(6-methylpyridin-3-yl)isoxazol-4-yl)methoxy)-1H-pyrrolo[3,4-c]pyridin-3(2H)-one]	62	1.62	13.7
Cc1ccc(-c2noc(C)c2COc2cc3c(cn2)C(=O)N(C)C3)cn1 [Example 10, 2-methyl-6-((5-methyl-3-(6-methylpyridin-3-yl)isoxazol-4-yl)methoxy)-1H-pyrrolo[3,4-c]pyridin-3(2H)-one]	80	1.8	18.9
Cc1ccc(-c2noc(C)c2COc2ccc(C(=O)NCC(C)C)cn2)cn1 [Example 11, N-isobutyl-6-((5-methyl-3-(6-methylpyridin-3-yl)isoxazol-4-yl)methoxy)nicotinamide]	55	1.55	11.2
Cc1ccc(-c2noc(C)c2COc2cc3c(cn2)C(=O)N(CCO)C3)cn1 [Example 12, 2-(2-hydroxyethyl)-6-((5-methyl-3-(6-methylpyridin-3-yl)isoxazol-4-yl)methoxy)-1H-pyrrolo[3,4-c]pyridin-3(2H)-one]	74	1.74	16.3
CCC[C@@H](CO)N1Cc2cc(OCc3c(-c4ccc(C)nc4)noc3C)ncc2C1=O [Example 13, (S)-2-(1-hydroxypentan-2-yl)-6-((5-methyl-3-(6-methylpyridin-3-yl)isoxazol-4-yl)methoxy)-1H-pyrrolo[3,4-c]pyridin-3(2H)-one]	158	2.58	14.4
CCC[C@@H](CO)NC(=O)c1cnc(OCc2c(-c3ccc(C)nc3)noc2C)cn1 [Example 14, N-((1S)-1-(hydroxymethyl)butyl)-5-((5-methyl-3-(6-methyl-3-pyridyl)isoxazol-4-yl)methoxy)pyrazine-2-carboxamide]	160	2.6	74.5
Cc1ccc(-c2noc(C)c2COc2cnc(C(=O)NC3CCOCC3)cn2)cn1 [Example 15, 5-((5-methyl-3-(6-methylpyridin-3-yl)isoxazol-4-yl)methoxy)-N-(tetrahydropyran-4-yl)pyrazine-2-carboxamide]	55	1.55	19.8
Cc1ccc(-c2noc(C)c2COc2ccc(C(=O)NC3CCS(=O)(=O)C3)cn2)cn1 (stereo not drawn) [Example 16, N-(1,1-dioxothiolan-3-yl)-6-((5-methyl-3-(6-methyl-3-pyridyl)isoxazol-4-yl)methoxy)pyridine-3-carboxamide]	85	1.85	19.2
Cc1ccc(-c2noc(C)c2COc2ccc(C(N)=O)cn2)cn1 [Example 17, 6-((5-methyl-3-(6-methylpyridin-3-yl)isoxazol-4-yl)methoxy)nicotinamide]	60	1.6	9.8
Cc1ccc(-c2noc(C)c2COc2ccc(C(N)=O)nn2)cn1 [Example 18, 6-((5-methyl-3-(6-methylpyridin-3-yl)isoxazol-4-yl)methoxy)pyridazine-3-carboxamide]	59	1.59	10.2
Cc1ccc(-c2noc(C)c2COc2ccc(C(=O)N[C@H]3CCS(=O)(=O)C3)cn2)cn1 [Example 19, N-((3S)-1,1-dioxothiolan-3-yl)-6-((5-methyl-3-(6-methylpyridin-3-yl)-1,2-oxazol-4-yl)methoxy)pyridine-3-carboxamide]	77	1.77	5.2
Cc1ccc(-c2noc(C)c2COc2ccc(C(=O)N[C@@H]3CCS(=O)(=O)C3)cn2)cn1 [Example 20, N-((3R)-1,1-dioxothiolan-3-yl)-6-((5-methyl-3-(6-methylpyridin-3-yl)-1,2-oxazol-4-yl)methoxy)pyridine-3-carboxamide]	95	1.95	11.8
Cc1ccc(-c2noc(C)c2COc2ccc(C(=O)NC3CCS(=O)(=O)CC3)cn2)cn1 [Example 21, N-(1,1-dioxothian-4-yl)-6-((5-methyl-3-(6-methylpyridin-3-yl)-1,2-oxazol-4-yl)methoxy)pyridine-3-carboxamide]	119	2.19	5.4
